# Entries after “also recorded” stand apart in the source; their conditions may differ.
# Tests used:
# [1] = test system: MMR defective cell lines; settings: mammalian cells; Chen et al. 2000; cited from earlier work
# [2] = test system: MMR activity (ATPase-dependent); settings: in vitro assays; Galio 1999, Allen 1997, Bjornson 2000; cited from earlier work
# [3] = test system: mismatch repair (MMR) in H36 pCAR-OF cells; type: cell-based, murine; settings: for generation of β-galactosidase positive cells / MI and shifting of the polynucleotide tract in the pCAR-OF reporter: H36 pCAR-OF cells
# [4] = test system: Pichia yeast containing GUS-OF reporter; assay: Pichia yeast pGUS-OF MMR-sensitive reporter assay (X-glu plates); type: cell-based; settings: GUS-OF Pichia incubated with 300 μM chemical for 48 hours
# Experimental: Briefly, the GUS-OF and GUS-IF gene, which contains a polyA repeat at the N-terminus of the protein was subcloned from the pCR-IF-GUS and pCR-OF-GUS plasmids into the EcoRI site of the pGP vector, which is a consitutively expressed yeast vector containing a zeocin resistance gene as selectable marker. pGP-GUS-IF and pGP-GUS-OF vectors were electroporated into competent Pichia cells using standard methods known by those skilled in the art. Cells were plated on YPD agar (10 g/L yeast extract; 20 g/L peptone; 2% glucose; 1.5% bactoagar) plates containing 100 μg/ml zeocin. Recombinant yeast are then analyzed for GUS expression/function by replica plating on YPD agar plates containing 100 μg/ml zeocin plus 1 mg/ml X-glu (5-bromo-4-chloro-3-indoyl-beta-D-glucuronide sodium salt) and grown at 30° C. for 16 hours. […] None of the yeast containing the GUS-OF turned blue in the presence of the X-glu substrate under normal growth conditions.
# After incubation, yeast were plated on YPD-ZEO-X-GLU plates and grown at 30° C. for 16 hours.
# [5] = test system: Arabidopsis thaliana; assay: Toxicity curve on Arabidopsis seeds on MS phytagar plates (root and shoot formation); type: in vivo; settings: for Dead: non-germinated seeds
# Experimental: Briefly, AT seeds were sterilized with straight commercial bleach and 100 seeds were plated in 100 mm Murashige and Skoog (MS) phytagar (Life Technology) plates with increasing amounts of DMA (ranging from 100 μm to 50 mM). A similar amount of seeds were plated on MS phytagar only or in MS phytagar with increasing amounts of EMS (1001M to 50 mM), a mutagen commonly used to mutate AT seeds (McCallum, C. M. et al. (2000) Nat. Biotechnol. 18:455-457). Plates were grown in a temperature-controlled, fluorescent-lighted humidifier (Percival Growth Chamber) for 10 days. After 10 days, seeds were counted to determine toxicity levels for each compound. […] Plantlets that were identical to untreated seeds were scored healthy. Seeds with stunted root or shoot formation were scored intermediate (inter). Non-germinated seeds were scored dead.
# [6] = test system: Arabidopsis thaliana; assay: New phenotypes in offspring of chemically exposed Arabidopsis plants; type: in vivo; settings: for offspring with small light green appearance (altered phenotype): offspring grown in standard soil conditions for 17 days, FIG. 6; for phenotypically distinct plants among offspring at day 10: offspring of plants grown from seeds on 2 mM DMA or 250 μM EMS for 10 days
# Experimental: Next, 50 seeds were plated in two 150 mm dishes containing 2 mM DMA, 250 μM EMS or no drug. Seeds were grown for 10 days and then 10 plants from each plate were transferred to soil. All plants appeared to be similar in color and height. Plants were grown at room temperature with daily cycles of 18 hr light and 6 hr dark. After 45 days seeds are harvested from siliques and stored in a desiccator at 4° C. for 72 hours. Seeds are then sterilized and 100 seeds from each plant is sown directly into water-saturated soil and grown at room temperature with daily cycles of 18 hr light and 6 hr dark. […] These 7 altered plants were light green in color and appeared to grow slower. […] DMA-exposed plants produced offspring that were yellow in appearance in contrast to dark green, which is always found in wild-type plants. In addition, the yellow plants were also shorter. After 30 days, most wild-type plants produced flowers and siliques, while the 7 mutants just began flowering. After 45 days, control plants were harvested while mutant plants were harvested 10 to 15 days later.
# [7] = test system: human HEK293 cells (BAT26 microsatellite marker); assay: BAT26 microsatellite instability of endogenous loci in 293 cells (PCR, cloning, sequencing); type: cell-based
# Experimental: (§1) Briefly, 10^5 cells were grown in control medium or 250 μM DMA, a concentration that is found to be non-toxic, for 14 to 17 days. Cells are then harvested and genomic DNA isolated using the salting out method (Nicolaides, N. C. et al. (1991) Mol. Cell. Biol. 11:6166-6176.).
# Various amounts of test DNAs from HCT116 (a human colon epithelial cell line) and 293 were first used to determine the sensitivity of our microsatellite test. The BAT26 alleles are known to be heterogeneous between these two cell lines and the products migrate at different molecular weights (Nicolaides personal observation). DNAs were diluted by limiting dilution to determine the level of sensitivity of the assay. DNAs were PCR amplified using the BAT26F: 5′-[…]-3′ (SEQ ID NO:43) and the BAT26R: 5′-[…]-3′ (SEQ ID NO:44) primers in buffers as described (Nicolaides, N. C. et al. (1995) Genomics 30:195-206). Briefly 1 pg to 100 ngs of DNA were amplified using the following conditions: 94° C. for 30 sec, 58° C. for 30 sec, 72° C. for 30 sec for 30 cycles. […]
# To measure for microsatellite stability in 293 cells grown with or without DMA, 0.1 ngs of DNA from DMA-treated or control 293 cells were amplified using the reaction conditions above. […] Fifty bacterial colonies were analyzed for BAT26 structure by directly adding an aliquot of live bacteria to the PCR mix. […]
# [8] = test system: human HEK293 cells; assay: Toxicity of DMA to 293 cells in culture; type: cell-based; settings: 14 to 17 days
# Experimental: as §1
# [9] = at high concentrations; Myers et al. 1988; cited from earlier work
# [10] = Arabidopsis thaliana, in vivo, 10 days, 2.5 mM
# [11] = Arabidopsis thaliana, in vivo, 10 days, 5 mM
# [12] = Arabidopsis thaliana, in vivo, 10 days, 10 mM
# [13] = Arabidopsis thaliana, in vivo, 10 days, 12.5 mM
# [14] = Arabidopsis thaliana, in vivo, 10 days, 25 mM
# [15] = Arabidopsis thaliana, in vivo, 10 days, 50 mM
smiles,measurement,setting,value
COc1ccc2nc3cc(Cl)ccc3c(NCCCNCCCl)c2c1 [ICR191],mutation induction in MMR defective cell lines,[1],produce enhanced mutation rates in already MMR defective cell lines
Nc1ncnc2c1ncn2[C@@H]1O[C@H](COP(=O)(O)OP(=O)(O)OP(O)(O)=S)[C@@H](O)[C@H]1O [ATP[gamma]S],effect on MMR activity in vitro,[2],block the MMR activity
"CCOS(C)(=O)=O [EMS, ethyl methanesulfonate]",generation of β-galactosidase positive cells / MI and shifting of the polynucleotide tract in the pCAR-OF reporter,[3],did not result in MI and/or the shifting of the polynulceotide tract in the pCAR-OF reporter
same,blue subclones (functional GUS) on YPD-ZEO-X-GLU plates,[4],none are seen
same,concentration at which toxicity occurs,"[5]; Arabidopsis thaliana, in vivo, 10 days",250 µM
same,Inter,"[5]; Arabidopsis thaliana, in vivo, 10 days, 0.1 mM",0 per 100 cells
same,Healthy,[5]; [10],0 per 100 cells
same,Inter,[5]; [10],0 per 100 cells
same,Healthy,[5]; [11],0 per 100 cells
same,Inter,[5]; [11],0 per 100 cells
same,Healthy,[5]; [12],0 per 100 cells
same,Inter,[5]; [12],0 per 100 cells
same,Healthy,[5]; [13],0 per 100 cells
same,Inter,[5]; [13],0 per 100 cells
same,Healthy,[5]; [14],0 per 100 cells
same,Inter,[5]; [14],0 per 100 cells
same,Healthy,[5]; [15],0 per 100 cells
same,Inter,[5]; [15],0 per 100 cells
same,offspring with small light green appearance (altered phenotype),[6],No plants with altered phenotypes were observed
same,phenotypically distinct plants among offspring at day 10,[6],no phenotypic difference was observed
Nc1ncnc2c1ncn2[C@@H]1O[C@H](COP(=O)(O)OP(=O)(O)NP(=O)(O)O)[C@@H](O)[C@H]1O [AMP-PNP],effect on MMR activity in vitro,[2],block the MMR activity
"Cc1c2ccccc2c(C)c2ccccc12 [DMA, 9,10-dimethylanthracene]",generation of β-galactosidase positive cells / MI and shifting of the polynucleotide tract in the pCAR-OF reporter,[3],produces b-gal positive H36 pCAR-OF cells
same,cells positive for b-gal,"[3]; H36 pCAR-OF cells grown in the presence of DMA, FIG. 3",Approximately 3%
same,blue subclones (functional GUS) on YPD-ZEO-X-GLU plates,[4],a subset of yeast expressing GUS-OF contain blue subclones
same,BAT26 polyA repeat alleles by sequence analysis of clones,"[7]; 293 cells treated with DMA, control clone homozygous for 26 nt polyA repeat",multiple alleles ranging from the wild-type with 26 polyA repeat to shorter alleles (24 polyA repeat) and larger alleles (28 polyA repeat)
same,altered BAT26 alleles (microsatellite instability),"[7]; 293 cells, 250 μM DMA, 14-17 days, PCR and gel electrophoresis",showed the presence of an altered allele; also recorded: presence of a new allele in cells treated with DMA
same,concentration at which toxicity occurs,"[5]; Arabidopsis seeds, continuous culture, from Table 2",10000 µM
same,Dead,"[5]; concentration 0.1, 10 days",0 per 100 seeds
same,Inter,"[5]; concentration 0.1, 10 days, stunted root or shoot formation scored intermediate",0 per 100 seeds
same,Dead,"[5]; concentration 0.5, 10 days",0 per 100 seeds
same,Inter,"[5]; concentration 0.5, 10 days, stunted root or shoot formation",0 per 100 seeds
same,Dead,"[5]; concentration 1.0, 10 days",0 per 100 seeds
same,Inter,"[5]; concentration 1.0, 10 days, stunted root or shoot formation",0 per 100 seeds
same,Dead,"[5]; concentration 2.5, 10 days",0 per 100 seeds
same,Dead,"[5]; concentration 5.0, 10 days",0 per 100 seeds
same,Dead,"[5]; concentration 10, 10 days",0 per 100 seeds
same,Healthy,"[5]; concentration 12.5, 10 days on MS phytagar",0 per 100 seeds
same,Dead,"[5]; concentration 12.5, 10 days",0 per 100 seeds
same,Healthy,"[5]; concentration 25, 10 days on MS phytagar",0 per 100 seeds
same,Dead,"[5]; concentration 25, 10 days",0 per 100 seeds
same,Healthy,"[5]; concentration 50, 10 days on MS phytagar",0 per 100 seeds
same,Inter,"[5]; concentration 50, 10 days, stunted root or shoot formation",0 per 100 seeds
same,offspring with small light green appearance (altered phenotype),[6],Six
same,phenotypically distinct plants among offspring at day 10,[6],7 out of 118
same,concentration found to be non-toxic,[8],250 µM
same,mutagenic activity,[9],acts as a potent weak mutagen

# From patent US8105836B2, “Chemical inhibitors of mismatch repair” (priority 2001, dated 2012)
